For one molecule, dose-dependent inhibition results are on record in article PMC2874894 (Investigative ophthalmology & visual science, 2009).

The assay deals with rPASP (Pseudomonas aeruginosa small protease) (Pseudomonas aeruginosa, UniProt Q9I690). Put plainly: fluorescein-gelatin hydrolysis, fluorescence. Format: biochemical. To be noted: fluorescein-conjugated gelatin substrate; rPASP 10 ug; 24 h, 37 °C.
rPASP (Pseudomonas aeruginosa small protease), sequence (Q9I690 whole entry): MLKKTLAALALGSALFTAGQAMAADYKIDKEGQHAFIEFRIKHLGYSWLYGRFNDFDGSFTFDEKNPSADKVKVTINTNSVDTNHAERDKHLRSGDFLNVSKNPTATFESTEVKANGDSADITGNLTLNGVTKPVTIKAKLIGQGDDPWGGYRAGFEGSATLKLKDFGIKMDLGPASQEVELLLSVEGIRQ

On to `Cc1ccc(S(=O)(=O)N[C@@H](CCCCN)C(=O)CCl)cc1` [TLCK], for which the dose-dependent inhibition entry is given as “Only TLCK demonstrated dose-dependent inhibition of rPASP activity”.
